Tests used:
[1] = system: Human skeletal muscle cells; type: cell-based
[2] = system: Large^myd mice; test: Body weight change and muscle weight of Large^myd mice; type: in vivo; details: 40 mg/kg body weight daily, not on weekends, 3 months
Experimental: The body weight change and muscle weight of treated Large^myd mice was also evaluated. Large^myd mice (at age of 10 weeks, male:female=1:1) received Compound D2 (40 mg/kg body weight) daily. No treatment on weekends. […] The muscle weight gain for the TA and EDL muscles are summarized below.

[3] = system: human skin cells; type: cell-based

Compound: CCCC(CCC)CO[N+](=O)[O-] [Compound D2, 2-propylpentyl nitrate]
- calcification (calcium-45 accumulation) [1]: reduce calcification
- EDL muscle mass ([2]; control 0.015 ± 0.001): 0.017 ± 0.001 gram
- TA muscle mass ([2]; control 0.048 ± 0.004): 0.054 ± 0.004 gram
- Body weight increase ([2]; control 2%): 13%;
- calcification (calcium-45 accumulation) [3]: significant reduction

Reference: patent publication US9452117B2 (priority 2011, dated 2016)
